Results reported in patent US5563125A, “5'-deoxy-5'-(substituted)alkylthioribose compounds and their pharmaceutical compositions” (priority 1992, dated 1996).

What was measured:
[1] = test system: T. b. brucei procyclic trypanosomes (Lab 110 EATRO strain); experiment: In vitro antitrypanosomal activity, procyclic trypanosomes in T2 medium; assay type: cell-based, Trypanosoma brucei brucei; details: Trypanosoma brucei, 3-5 days
Method: The antitrypanosomal effects of HETA and other nucleosides were examined in the Lab 110 EATRO strain of T. b. brucei in culture.
Cells were cultured as described in Bacchi et al. Exp. Parasitol. 68, 392, 1989. Cells were then grown in the presence of the compounds for 3-5 days. Drugs were filtered, sterilized and added aseptically. Control cells achieved a maximum density of 1.5-3.5×10^7 /ml. Hemocytometer counts were made daily and the results were expressed as a percent of control growth. IC50 plots were obtained by graphing log (drug) vs. percent growth inhibition.
Trypanocidal Activity of MTA and MTR Analogs
against T. b. brucei procyclic trypanosomes in T2 medium.

[2] = target: T1, T. b. brucei MTA phosphorylase (Trypanosoma brucei, UniProt Q57XS4); experiment: T. b. brucei MTA phosphorylase substrate assay; assay type: biochemical; details: relative to MTA
T1 construct: MTA or analogs as substrates
Method: ^a MTA phosphorylase was assayed according to Ghoda et al., using 200
μM MTA (saturating) or analogs as substrates. Specific activities of
the dialyzed enzyme preparations were with 50 mM PO4, 104.97 n
moles/mg protein/h; without PO4, 28.27 n moles/mg protein/h. Results
are expressed as percent activity compared to as substrate with and
without PO4, respectively.

[3] = test system: L1210 cells (MTA phosphorylase-deficient); experiment: Growth inhibition of L1210 cells; assay type: cell-based, mouse; details: Mus musculus, L1210, 48 h
Method: (§1) L1210, L5178Y and MOLT-4 cell lines were grown in RPMI 1640 and 10% Nu Serum (Collaborative Research Inc., Lexington, Mass.) and CCRF-CEM cells were grown in 10% Horse Serum (Gibco Laboratories, Grand Island, N.Y.) and maintained as previously described for suspension cultures by Pera et al. in Cancer Res. 46, 1148, 1986. Cell cultures (0.3×10^5 cells/ml) were treated with each compound at 0.1 to 1000 μM to determine the concentration that inhibited growth by 50% (IC50) at 48 hr for the L1210 and L5178Y cells and at 96 hr for the CCRF-CEM and MOLT-4 cells. The incubation times allowed approximately 4 cell doublings in each cell line. All compounds were freshly prepared prior to treatment by dissolving in DMSO and diluting in serum-free media. Cells were counted by electron particle counting (Model XF' Coulter Counter; Coulter Electronics, Hialeah, Fla.).
(§2) For each compound, the concentrations required to inhibit cell growth by 50% (IC50 values) are shown in Table 7 for two murine leukemic cell lines, L1210 and L5178Y [MTA phosphorylase-deficient and MTA phosphorylase-containing, respectively] and two human leukemic cell lines, CCRF-CEM and MOLT-4 [MTA phosphorylase-deficient and MTA phosphorylase-containing, respectively]. ETA, MFETA, HETA and PTA had lower IC50 values in the L5178Y cells than in the L1210 cells. […] This differential is consistent with the possibility that, in L5178Y cells, MFETA is cleaved by MTA phosphorylase to the growth inhibitory metabolite, 5-monofluoroethylthioribose-1-phosphate (MFETR-1-P).

[4] = test system: L5178Y cells (MTA phosphorylase-containing); experiment: Growth inhibition of L5178Y cells; assay type: cell-based, mouse; details: Mus musculus, 48 h
Method: as §1, §2

[5] = test system: MOLT-4 cells (MTA phosphorylase-containing); experiment: Growth inhibition of MOLT-4 cells; assay type: cell-based, human; details: Homo sapiens, MOLT-4, 96 h
Method: as §1, §2

L1210 leukemic cells = experiment: Antitumor effects in L1210 leukemic mice; assay type: in vivo, DBA/2N mice
Method: The antitumor effects of MFETA were evaluated in DBA/2N mice (Charles River) who received i.p. transplants of 10^6 L1210 leukemic cells or 10^6 L5178Y leukemic cells on day 0 according to protocols described previously by Bernacki et al., Cancer Res. 47, 799, 1987. The increase in life span (% ILS) of treated animals relative to untreated, tumor-bearing animals was used as the measure of their therapeutic effectiveness at specified dose regimens.
^a MFETA was administered i.p. on days 1, 2, 3, 4, 5 following i.p.
implantation of 10^6 tumor cells on day 0.
^b % ILS is the percentage of increase in life span.

[6] = test system: A121 (human ovarian carcinoma); experiment: In vitro evaluation, A121; assay type: cell-based; details: A121, medium B, 72 hours, solvent DMSO
Method: (§3) In vitro evaluations of the compound 5'-deoxy-5'-(monofluoroethylthio) adenosine (MFETA) were performed using the materials and conditions described in Tables 9 and 10.
(§4) (a) Basal medium + RPMI 1640 + 20 mM HEPES;
(§5) B--5% NuSerum IV + 5% FCS,
(§6) *Incubation or exposure time is determined by the doubling time of the
(§7) cell line such that each is exposed to the compound for 3-4 cell

[7] = test system: A549 (human non-small cell lung carcinoma); experiment: In vitro evaluation, A549; assay type: cell-based; details: A549, medium B, 72 hours, solvent DMSO
Method: as §3, §4, §5, §6, §7

HO (human melanoma) = experiment: In vitro evaluation, HO; assay type: cell-based; details: medium B, 72 hours
Method: as §3
(§8) ^(a) Basal medium = RPMI 1640 + 20 mM HEPES + 2 mM Lglutamine
(§9) B = 5% FCS + 5% NuSerum IV

LOX (human melanoma) = experiment: In vitro evaluation, LOX; assay type: cell-based; details: medium B, 72 hours
Method: as §3, §8, §9

PANuT (human melanoma) = experiment: In vitro evaluation, PANuT; assay type: cell-based; details: medium B, 72 hours
Method: as §3, §8, §9

SH-1 (human melanoma) = experiment: In vitro evaluation, SH-1; assay type: cell-based; details: SH-1, medium B, 72 hours
Method: as §3, §8, §9

STO-1 (human melanoma) = experiment: In vitro evaluation, STO-1; assay type: cell-based; details: STO-1, medium B, 72 hours
Method: as §3, §8, §9

T1 sequence (Q57XS4 entry or part of it): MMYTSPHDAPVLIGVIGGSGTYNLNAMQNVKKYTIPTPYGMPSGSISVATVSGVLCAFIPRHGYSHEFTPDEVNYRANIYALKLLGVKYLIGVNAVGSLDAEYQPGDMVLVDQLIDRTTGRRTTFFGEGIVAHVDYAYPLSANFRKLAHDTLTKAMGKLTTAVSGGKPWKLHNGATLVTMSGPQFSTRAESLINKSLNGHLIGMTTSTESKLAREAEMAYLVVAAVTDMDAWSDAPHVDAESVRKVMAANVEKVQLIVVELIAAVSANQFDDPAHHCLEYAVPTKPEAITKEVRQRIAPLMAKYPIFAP

Nc1ncnc2c1ncn2[C@@H]1O[C@H](CSCCF)[C@@H](O)[C@H]1O [MFETA, 5'-deoxy-5'-(monofluoroethylthio)adenosine]
IC50 [1]: 5 µM
Percent Control Activity ([2]; +50 mM PO4, 200 μM substrate): 75.3%
Percent Control Activity ([2]; No PO4, 200 μM substrate): 109.1%
IC50 [3]: 150 ± 50 µM
IC50 [4]: 60 ± 35 µM
IC50 [5]: 10 ± 3 µM
% ILS (percentage of increase in life span) (L1210 leukemic cells; L1210, 10 mg/kg i.p. days 1-5): 14%
Mean Death Weight (L1210 leukemic cells; L1210, 10 mg/kg i.p. days 1-5): 23.7 g
Survival Mean ± SD (L1210 leukemic cells; L1210, 10 mg/kg i.p. days 1-5): 7.2 ± 0.5 days
Survival Median (L1210 leukemic cells; L1210, 10 mg/kg i.p. days 1-5): 8 days
Survival Range (L1210 leukemic cells; L1210, 10 mg/kg i.p. days 1-5): 6 to 8 days
% ILS (percentage of increase in life span) (L1210 leukemic cells; L1210, 50 mg/kg i.p. days 1-5): 14%
Mean Death Weight (L1210 leukemic cells; L1210, 50 mg/kg i.p. days 1-5): 24.5 g
Survival Mean ± SD (L1210 leukemic cells; L1210, 50 mg/kg i.p. days 1-5): 7.8 ± 0.2 days
Survival Median (L1210 leukemic cells; L1210, 50 mg/kg i.p. days 1-5): 8 days
Survival Range (L1210 leukemic cells; L1210, 50 mg/kg i.p. days 1-5): 7 to 8 days
% ILS (percentage of increase in life span) (L1210 leukemic cells; L1210, 100 mg/kg i.p. days 1-5): 14%
Mean Death Weight (L1210 leukemic cells; L1210, 100 mg/kg i.p. days 1-5): 22.8 g
Survival Mean ± SD (L1210 leukemic cells; L1210, 100 mg/kg i.p. days 1-5): 7.9 ± 0.2 days
Survival Median (L1210 leukemic cells; L1210, 100 mg/kg i.p. days 1-5): 8 days
Survival Range (L1210 leukemic cells; L1210, 100 mg/kg i.p. days 1-5): 7 to 9 days
% ILS (percentage of increase in life span) (L1210 leukemic cells; L1210, 200 mg/kg i.p. days 1-5): 28%
Mean Death Weight (L1210 leukemic cells; L1210, 200 mg/kg i.p. days 1-5): 18.4 g
Survival Mean ± SD (L1210 leukemic cells; L1210, 200 mg/kg i.p. days 1-5): 8.8 ± 0.8 days
Survival Median (L1210 leukemic cells; L1210, 200 mg/kg i.p. days 1-5): 9 days
Survival Range (L1210 leukemic cells; L1210, 200 mg/kg i.p. days 1-5): 6 to 11 days
% ILS (percentage of increase in life span) (L1210 leukemic cells; L1210, 300 mg/kg i.p. days 1-5): -72%
Mean Death Weight (L1210 leukemic cells; L1210, 300 mg/kg i.p. days 1-5): 18.8 g
Survival Mean ± SD (L1210 leukemic cells; L1210, 300 mg/kg i.p. days 1-5): 2.2 ± 0.2 days
Survival Median (L1210 leukemic cells; L1210, 300 mg/kg i.p. days 1-5): 2 days
Survival Range (L1210 leukemic cells; L1210, 300 mg/kg i.p. days 1-5): 2 to 3 days
IC50 [6]: 269 µM
IC50 [7]: 346 µM
IC50 (HO (human melanoma)): 333 ± 5.9 µM
IC50 (LOX (human melanoma)): 268 ± 13 µM
IC50 (PANuT (human melanoma)): 160 ± 8.1 µM
IC50 (SH-1 (human melanoma)): 319 ± 10 µM
IC50 (STO-1 (human melanoma)): 296 ± 9.9 µM
